Results taken from US10662194B2, “Substituted 6-anilino-9-heterocyclylpurine derivatives for inhibition of plant stress” (UNIVERZITA PALACKEHO V OLOMOUCI, priority 2014, dated 2020).
Marks after values point to notes of the source that are not given here.

Tests used:
[1] = system: maize hybrides Amadeo and Zidane; assay: Seed coating, shoot biomass of silage maize (field experiment); assay type: in vivo
Description: Based on the results discussed in previous Example 25, field plot experiments were performed on two different locations (Kroměříž Czech Republic; Olomouc, Czech Republic) in years 2012 and 2013 to evaluate the effect of seed coating with compound 12 on biomass formation of maize. In
the season 2012 the seeds of maize (hybrid Amadeo; KWS, FAO 230) were coated with 10 and 50 μM water solution of compound 12 (8 L of solution per 1000 kg of seeds). The seeds were dried and then sown in the sowing rate 90.000 seeds per hectare in 4 replications per each variant in randomized positions (each replication was 10 square meter plot). The plants were harvested when reached the stage of 33-34% of dry mass. The plants were then analyzed for their moisture and standardized dry mass.
The experiment was repeated in the season 2013 with 50 μM concentration of compound 12 in the same experimental design with maize hybrid Zidane (KWS, FAO 250).

[2] = biological target: T1, AHK3 (Arabidopsis thaliana, UniProt Q9C5U1); assay: Escherichia coli cytokinin receptor activation assay (AHK3); assay type: cell-based; conditions: 10^−7 M-5×10^−5 M, compared to trans-zeatin, FIG. 1
T1 construct: expressed in transfected cells; host or cells: Escherichia coli strain KMI001
T1 sequence (Q9C5U1 1-1036): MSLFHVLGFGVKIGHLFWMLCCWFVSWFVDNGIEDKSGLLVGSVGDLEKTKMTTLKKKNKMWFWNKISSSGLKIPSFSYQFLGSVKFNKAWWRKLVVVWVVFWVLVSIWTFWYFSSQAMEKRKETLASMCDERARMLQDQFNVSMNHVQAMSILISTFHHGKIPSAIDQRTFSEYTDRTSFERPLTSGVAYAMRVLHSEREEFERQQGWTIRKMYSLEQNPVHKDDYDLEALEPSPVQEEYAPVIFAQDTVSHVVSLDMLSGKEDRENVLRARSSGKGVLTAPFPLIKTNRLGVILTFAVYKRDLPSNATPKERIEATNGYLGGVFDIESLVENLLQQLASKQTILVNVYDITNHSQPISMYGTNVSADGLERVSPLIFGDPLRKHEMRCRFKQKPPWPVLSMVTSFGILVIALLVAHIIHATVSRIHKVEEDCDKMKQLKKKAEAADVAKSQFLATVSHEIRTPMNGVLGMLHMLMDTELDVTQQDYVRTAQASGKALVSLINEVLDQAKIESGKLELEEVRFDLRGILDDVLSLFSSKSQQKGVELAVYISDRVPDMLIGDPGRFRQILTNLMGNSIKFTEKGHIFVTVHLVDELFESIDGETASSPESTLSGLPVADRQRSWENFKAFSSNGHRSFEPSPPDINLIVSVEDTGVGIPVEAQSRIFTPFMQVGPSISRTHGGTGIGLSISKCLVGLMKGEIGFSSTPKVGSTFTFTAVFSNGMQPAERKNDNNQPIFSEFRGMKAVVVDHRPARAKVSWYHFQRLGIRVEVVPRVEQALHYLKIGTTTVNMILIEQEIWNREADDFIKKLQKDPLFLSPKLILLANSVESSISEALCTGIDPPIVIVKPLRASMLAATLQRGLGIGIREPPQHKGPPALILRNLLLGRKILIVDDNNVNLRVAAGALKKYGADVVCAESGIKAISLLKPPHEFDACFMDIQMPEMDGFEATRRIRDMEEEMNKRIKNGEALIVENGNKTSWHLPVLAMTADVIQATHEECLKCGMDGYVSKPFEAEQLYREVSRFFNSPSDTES
Description: Escherichia coli strains KMI001 harbouring the plasmid pIN-III-AHK4 or pSTV28-AHK3 were grown overnight at 25° C. in M9 media enriched with 0.1% casamino acids to OD600˜1. The preculture was diluted 1:600 in 1 ml M9 medium containing 0.1% casamino acids and 1 μL stock solution of either the tested compound (10^−7 M-5×10^−5 M) or solvent control (DMSO, ethanol, methanol) were added. The cultures were further grown at 25° C. in microtiter plate, 200 μL per well. […] The cultures were centrifuged and 50 μL aliquots of the supernatant were transferred to microtiter plate containing 2 μL 50 mM 4-methyl umbelliferyl galactoside which was subsequently incubated for 1 h at 37° C. The reaction was stopped by adding 100 μL 0.2 M Na2CO3. Fluorescence was measured using a Fluoroscan Ascent (Labsystems, Finland) at the excitation and emission wavelengths of 365 and 460 nm, respectively. The OD600 of remaining culture was determined and β-galactosidase activity was calculated as nmol 4-methylumbelliferone×OD600^−1×h^−1.

[3] = system: maize (hybrid Amadeo); assay: Seed coating, shoot and root growth of maize (pot experiment); assay type: in vivo
Description: The drenching experiments with model plant Arabidopsis pointed to potential application of compound 12 in stimulation of plant growth and development when the roots of the plants are exposed to the chemical. […] In the year 2011 pot experiment was performed with maize (hybrid Amadeo; KWS, FAO 230). The seeds were coated with 10 and 50 μM concentration of compound 12 mixed into seed treatment agent Cruiser OSR (Syngenta; 8 L of solution per 1000 kg of seeds). Seeds coated with only Cruiser OSR were used for control variant. The seeds were dried and then sown into the soil, one plant per 15 L pot (30 plants were used per variant). The plants were harvested after app. one month in stage DC 18 (eight leafs per plant). The shoots and the roots of each plant were separated and dried. The weight of dry shoot and root biomass was recorded. […] The plants, which seeds were coated with the lower concentration of compound 12, formed 2-times higher root dry biomass and 2.75-times higher shoot dry biomass. In total this was reflected by 2.3-times increase of the total plant dry weight.

[4] = seed coating, lower concentration (10 μM), stage DC 18

SMILES: COc1cccc(Nc2nc(Cl)nc3c2ncn3C2CCCCO2)c1 (stereo not drawn) [compound 12, 2-chloro-6-(3-methoxyanilino)-9-(tetrahydropyran-2-yl)purine]
- Absolute dry matter yield ([1]; 10 μM, Kroměříž, 2012): 23.06 t/ha
- Absolute green matter yield ([1]; 10 μM, Kroměříž, 2012): 52.19 t/ha
- Height before harvest ([1]; 10 μM, Kroměříž, 2012): 276.6 cm
- Height before harvest (% of control) ([1]; 10 μM, Kroměříž, 2012): 101.0 % of control
- Relative dry matter yield (% of control) ([1]; 10 μM, Kroměříž, 2012): 110.85 % of control
- Absolute dry matter yield ([1]; 10 μM, Olomouc, 2012): 17.01 t/ha
- Absolute green matter yield ([1]; 10 μM, Olomouc, 2012): 43.20 t/ha
- Height before harvest ([1]; 10 μM, Olomouc, 2012): 237.3 cm
- Height before harvest (% of control) ([1]; 10 μM, Olomouc, 2012): 98.3 % of control
- Relative dry matter yield (% of control) ([1]; 10 μM, Olomouc, 2012): 110.94 % of control
- average silage yield counted from all trials ([1]; 10 μM, counted from 2 trials): 110.9%
- Absolute dry matter yield ([1]; 50 μM, Kroměříž, 2012): 22.18 t/ha
- Absolute green matter yield ([1]; 50 μM, Kroměříž, 2012): 49.52 t/ha
- Height before harvest ([1]; 50 μM, Kroměříž, 2012): 273.5 cm
- Height before harvest (% of control) ([1]; 50 μM, Kroměříž, 2012): 99.8 % of control
- Relative dry matter yield (% of control) ([1]; 50 μM, Kroměříž, 2012): 106.63 % of control
- Absolute dry matter yield ([1]; 50 μM, Kroměříž, 2013): 22.33 t/ha
- Absolute green matter yield ([1]; 50 μM, Kroměříž, 2013): 66.47 t/ha
- Relative dry matter yield (% of control) ([1]; 50 μM, Kroměříž, 2013): 107.82* % of control
- Absolute dry matter yield ([1]; 50 μM, Olomouc, 2012): 17.80 t/ha
- Absolute green matter yield ([1]; 50 μM, Olomouc, 2012): 44.31 t/ha
- Height before harvest ([1]; 50 μM, Olomouc, 2012): 235.8 cm
- Height before harvest (% of control) ([1]; 50 μM, Olomouc, 2012): 97.7 % of control
- Relative dry matter yield (% of control) ([1]; 50 μM, Olomouc, 2012): 116.06 % of control
- Absolute dry matter yield ([1]; 50 μM, Olomouc, 2013): 19.23 t/ha
- Absolute green matter yield ([1]; 50 μM, Olomouc, 2013): 68.78 t/ha
- Height before harvest ([1]; 50 μM, Olomouc, 2013): 246.4 cm
- Height before harvest (% of control) ([1]; 50 μM, Olomouc, 2013): 100.8 % of control
- Relative dry matter yield (% of control) ([1]; 50 μM, Olomouc, 2013): 101.33 % of control
- average silage yield counted from all trials ([1]; 50 μM, counted from 3 trials): 105.3%
- effect on the plant height ([1]; seed treatment, all field plot experiments): without any effect on the plant height
- ability to activate cytokinin receptor AHK3 [2]: very low ability to activate
- effect on shoot and root dry biomass ([3]; seed coating 10 and 50 μM, FIG. 10): dose-dependent stimulatory effect
- increase of the total plant dry weight [3, 4]: 2.3 times
- root dry biomass, times higher than control [3, 4]: 2 times
- shoot dry biomass, times higher than control [3, 4]: 2.75 times
